The subject of experiment [1] is Bacillus cereus. Put plainly: Minimal inhibitory concentration against Bacillus cereus. Format: functional.
Experiment [2] concerns Pseudomonas aeruginosa. The experiment can be described thus: Minimal inhibitory concentration against Pseudomonas aeruginosa. The format is functional.
The subject of experiment [3] is Pseudomonas aeruginosa. The experiment can be described thus: inhibition of Pseudomonas aeruginosa was measured by zone diameter. Format: functional.
In experiment [4] the test system is Bacillus subtilis. The experiment can be described thus: inhibition of Bacillus subtilis was measured by zone diameter. The format is functional.
Experiment [5] deals with Bacillus subtilis. Put plainly: Minimal inhibitory concentration against Bacillus subtilis. The format is functional.
Experiment [6] relates to Bacillus cereus. Put plainly: inhibition of Bacillus cereus was measured by zone diameter. Format: functional.
For experiment [7], the system named is Escherichia coli. The experiment can be described thus: Diameter of the inhibition zone of Escherichia coli upon administration of compound. Format: functional.
Experiment [8] concerns Escherichia coli. The experiment can be described thus: Minimal inhibitory concentration against Escherichia coli. The format is functional.
Experiment [9] relates to Escherichia coli. The experiment can be described thus: Minimal inhibitory concentration against Escherichia coli; Not active. The format is functional, organism-based.
For experiment [10], the system named is Candida albicans. The experiment can be described thus: inhibition of Candida albicans was measured by zone diameter. Format: functional.
For experiment [11], the system named is Candida albicans. Put plainly: Minimal inhibitory concentration against Candida albicans. Format: functional.
Experiment [12] concerns Pseudomonas aeruginosa. The experiment can be described thus: Minimal inhibitory concentration against Pseudomonas aeruginosa; Not active. The format is functional, organism-based.
The test system of experiment [13] is Escherichia coli. The experiment can be described thus: inhibition of Escherichia coli was measured by zone diameter. The format is functional.
The test system of experiment [14] is Bacillus subtilis. The experiment can be described thus: Minimal inhibitory concentration against Bacillus subtilis (CECT 498) strain; Not active. Format: functional, organism-based.
The test system of experiment [15] is Pseudomonas aeruginosa. Put plainly: Minimal inhibitory concentration against Pseudomonas aeruginosa (CECT 108) strain; Not active. The format is functional, organism-based.
The test system of experiment [16] is Candida albicans. Put plainly: Minimal inhibitory concentration against Candida albicans (CECT 1394) strain; Not active. Format: functional, organism-based.
In experiment [17] the test system is Escherichia coli. The experiment can be described thus: Minimal inhibitory concentration against Escherichia coli (CECT 101) strain; Not active. The format is functional, organism-based.
Experiment [18] relates to Bacillus cereus. Put plainly: Minimal inhibitory concentration against Bacillus cereus (CECT 148) strain; Not active. Format: functional, organism-based.
Experiment [19] relates to Candida albicans. Put plainly: Minimal inhibitory concentration against Candida albicans; Not active. The format is functional, organism-based.

≈ marks a conversion by molar mass, not a printed value. Calls of active or inactive are those of the source. The rule behind the calls is not given here.

One may read the MIC as the least concentration at which growth counts as inhibited.

On to `Cc1cc2c(C)c(C)sc2cc1Nc1ccccc1`, for which the MIC with Bacillus cereus [1], against Pseudomonas aeruginosa [2], in the experiment with Bacillus subtilis [5] and in the experiment with Escherichia coli [8] was 200 µg/mL (≈ 748 µM) each time. Moreover, the Inhibition came to 16 mm in the experiment on Pseudomonas aeruginosa [3], 8 mm with Bacillus subtilis [4], 18 mm with Bacillus cereus [6] and 4 mm with Escherichia coli [7].
As for `Cc1cc2c(C)c(C)sc2cc1N`, the values for the MIC in the experiment with Bacillus cereus [1], against Bacillus subtilis [5] and against Candida albicans [11] were 500 µg/mL (≈ 2610 µM), 500 µg/mL (≈ 2610 µM) and 1000 µg/mL (≈ 5230 µM), respectively. In addition, the MIC result in the experiment with Escherichia coli [9] and in the experiment with Pseudomonas aeruginosa [12] was “inactive” throughout. The Inhibition with Candida albicans [10] was determined as 13 mm; with Bacillus subtilis [4], 17 mm; in the experiment on Bacillus cereus [6] it was 10 mm.
On to `CC1(C)S[C@@H]2[C@H](NC(=O)[C@H](N)c3ccccc3)C(=O)N2[C@H]1C(=O)O` [AMPICILLIN], for which the MIC against Bacillus cereus [1] is 3.13 µg/mL (≈ 8.96 µM); in the experiment with Pseudomonas aeruginosa [2], 6.25 µg/mL (≈ 17.9 µM); in the experiment on Bacillus subtilis [5], 12.5 µg/mL (≈ 35.8 µM); in the experiment on Escherichia coli [8], 6.25 µg/mL (≈ 17.9 µM). The Inhibition in the experiment on Pseudomonas aeruginosa [3] was found to be 12 mm; in the experiment with Bacillus subtilis [4], 10 mm; in the experiment on Escherichia coli [13], 15 mm; in the experiment with Bacillus cereus [6] it was 13 mm.
Consider `Cc1cc2c(C)c(C)sc2cc1Nc1ccc(F)cc1`, for which the MIC with Bacillus cereus [1] and in the experiment on Bacillus subtilis [5] was 200 µg/mL (≈ 701 µM) in each case. Also, the MIC entry with Escherichia coli [9] and in the experiment with Pseudomonas aeruginosa [12] was “inactive” each time. In addition, the Inhibition in the experiment on Bacillus subtilis [4] is 10 mm; in the experiment on Bacillus cereus [6], 12 mm.
`O=C(N[C@H](CO)[C@H](O)c1ccc([N+](=O)[O-])cc1)C(Cl)Cl` [CHLORAMPHENICOL]: the lowest concentration to inhibit growth against Bacillus cereus [1] (MIC) was 3.13 µg/mL (≈ 9.69 µM). This compound also registered an Inhibition in the experiment on Bacillus cereus [6] of 8 mm.
On to `COc1ccc(Nc2cc3sc(C)c(C)c3cc2C)cc1`, for which the MIC in the experiment with Bacillus cereus [1] turned out to be 100 µg/mL (≈ 336 µM); in the experiment with Pseudomonas aeruginosa [2], 1000 µg/mL (≈ 3360 µM); against Bacillus subtilis [5], 50 µg/mL (≈ 168 µM); in the experiment on Candida albicans [11], 12.5 µg/mL (≈ 42 µM); against Escherichia coli [8], 1000 µg/mL (≈ 3360 µM). Further, the Inhibition is 8 mm in the experiment on Pseudomonas aeruginosa [3]; 6 mm with Candida albicans [10]; 19 mm in the experiment on Bacillus subtilis [4]; 4 mm in the experiment on Bacillus cereus [6]; 4 mm with Escherichia coli [7].
For the compound `Cc1ccc2sc(C)c(C)c2c1`, the MIC result with Bacillus subtilis [14], in the experiment on Pseudomonas aeruginosa [15], in the experiment with Candida albicans [16], with Escherichia coli [17] and with Bacillus cereus [18] was “inactive” in each case.
With `Cc1cc2c(C)c(C)sc2cc1Br`, the MIC entry in the experiment on Candida albicans [19], in the experiment on Escherichia coli [9] and in the experiment with Pseudomonas aeruginosa [12] was “inactive” each time. Also, the MIC is 1000 µg/mL (≈ 3920 µM) against Bacillus cereus [1] and 500 µg/mL (≈ 1960 µM) against Bacillus subtilis [5]. Further, the Inhibition is listed as 18 mm with Bacillus subtilis [4] and 12 mm with Bacillus cereus [6].
With `Cc1cc2c(C)c(C)sc2cc1Nc1ccccc1F`, the MIC against Bacillus cereus [1] stood at 200 µg/mL (≈ 701 µM); in the experiment on Bacillus subtilis [5] it was 50 µg/mL (≈ 175 µM). For the same compound, in the experiment on Escherichia coli [9], the MIC entry is “inactive”. For the same compound, the Inhibition was 8 mm with Bacillus subtilis [4] and 9 mm in the experiment on Bacillus cereus [6].
For `COc1ccc(Nc2cc3sc(C)c(C)c3cc2C)cc1OC`, the MIC stood at 200 µg/mL (≈ 611 µM) in the experiment with Bacillus cereus [1], 1000 µg/mL (≈ 3050 µM) against Pseudomonas aeruginosa [2], 200 µg/mL (≈ 611 µM) in the experiment on Bacillus subtilis [5] and 25 µg/mL (≈ 76.3 µM) against Candida albicans [11]. Also, the Inhibition in the experiment with Pseudomonas aeruginosa [3] came out at 10 mm; in the experiment on Candida albicans [10], 8 mm; in the experiment on Bacillus subtilis [4], 10 mm; with Bacillus cereus [6], 24 mm. In the experiment with Escherichia coli [9], the MIC entry is “inactive”.
